Results: the CheMixHub ionic liquid set
± gives the uncertainty stated by the source.

Test: xn = mol fraction of the nth substance listed

CCCC[n+]1ccn(C)c1.O=S(=O)([N-]S(=O)(=O)C(F)(F)F)C(F)(F)F + CC(=O)[O-].CCCC[NH2+]CCO
101 kPa, x2 = 0
Conditions | viscosity [mPa·s]
278.15 K | 145.6 ± 2.3
288.15 K | 83.44 ± 0.91
293.15 K | 65.11 ± 0.61
318.15 K | 24.05 ± 0.22

CCCC[n+]1ccn(C)c1.O=S(=O)([N-]S(=O)(=O)C(F)(F)F)C(F)(F)F + CC(=O)[O-].CCCC[n+]1ccn(C)c1
101 kPa
Conditions | electrical conductivity, 313.15 K [S/m] | viscosity, 298.15 K [mPa·s] | viscosity, 313.15 K [mPa·s] | viscosity, 353.15 K [mPa·s]
x1 = 1 | 0.683 ± 0.027 | – | 28.5 ± 2.9 | –
x2 = 0 | – | 50.3 ± 2.1 | – | 9.52 ± 0.4

CC1CNCCN1 (stereo not drawn) + CC(=O)[O-].CCCC[n+]1ccn(C)c1 + O
viscosity [mPa·s], 100 kPa
Conditions | 298.15 K | 303.15 K | 308.15 K | 313.15 K | 318.15 K | 323.15 K | 328.15 K | 333.15 K
x2 = 0.04327, x1 = 0.02647 | 3.46 ± 0.05 | 3.23 ± 0.05 | 2.82 ± 0.04 | 2.64 ± 0.04 | 2.39 ± 0.04 | 1.91 ± 0.03 | 1.31 ± 0.02 | 1.16 ± 0.02
x2 = 0.05132, x1 = 0.01784 | 3.58 ± 0.08 | 3.38 ± 0.07 | 3.16 ± 0.06 | 3.02 ± 0.05 | 2.84 ± 0.05 | 2.52 ± 0.09 | 2.47 ± 0.14 | 1.83 ± 0.09
x2 = 0.05944, x1 = 0.009089 | 4.03 ± 0.06 | 3.78 ± 0.06 | 3.72 ± 0.06 | 3.24 ± 0.05 | 3.11 ± 0.05 | 2.89 ± 0.04 | 2.54 ± 0.04 | 2.03 ± 0.03

Nc1ncnc2[nH]cnc12 + CC(=O)[O-].CC[n+]1ccn(C)c1
Conditions | viscosity [mPa·s]
298.15 K, 100 kPa, x1 = 0.2012 | 960

CCCC[n+]1ccn(C)c1.F[P-](F)(F)(F)(F)F + CC(=O)c1ccccc1
Conditions | viscosity [mPa·s]
313.15 K, 100 kPa, x2 = 0 | 97 ± 19

CCCC[n+]1ccn(C)c1.F[P-](F)(F)(F)(F)F + CC(C)=O
Conditions | electrical conductivity [S/m] | viscosity [mPa·s]
296.15 K, 101 kPa, x2 = 0 | 0.15 ± 0.02 | –
296.15 K, 101 kPa, x2 = 0.9195 | 3.84 ± 0.38 | –
298.15 K, 101 kPa, x2 = 0.4972 | 1.28 ± 0.15 | 14.7 ± 1.6
298.15 K, 101 kPa, x2 = 0.7839 | 2.86 ± 0.34 | 2.05 ± 0.28
298.15 K, 101.3 kPa, x2 = 0.4485 | – | 18.46 ± 0.49
298.15 K, 101.3 kPa, x2 = 0.6007 | – | 6.96 ± 0.17
298.15 K, 101.3 kPa, x2 = 0.8058 | – | 1.648 ± 0.042
